For one test, the species on record is Mus musculus. As to the kind of experiment: In vitro inhibition of LTC4 biosynthesis in plasma protein-free cultures of zymosan-stimulated mouse macrophages. The test is classed as functional.
Another test is filed under the species Homo sapiens. Nature of the test: In vitro inhibition of LTB4 biosynthesis in A-23187-stimulated human whole blood. The test is classed as functional.

The record followed here is ChEMBL document CHEMBL1126825, “4-Methoxy-2-methyltetrahydropyrans: chiral leukotriene biosynthesis inhibitors, related to ICI D2138, which display enantioselectivity” (J Med Chem, 1993).

For orientation: IC50 means the concentration that inhibits the measured activity by half.

With `CO[C@]1(c2cc(F)cc(OCc3ccc4c(ccc(=O)n4C)c3)c2)CCO[C@H](C)C1`, the half-maximal inhibitory concentration (IC50) in the test listed under Mus musculus amounted to 8 nM; in the test filed under Homo sapiens it was 140 nM.
In the test filed under Mus musculus, `CO[C@]1(c2cc(F)cc(OCc3ccc4c(ccc(=O)n4C)c3)c2)CCO[C@@H](C)C1` showed an IC50 of 0.4 nM.
Regarding `CO[C@@]1(c2cc(F)cc(OCc3ccc4c(ccc(=O)n4C)c3)c2)CCO[C@H](C)C1`, the half-maximal inhibitory concentration (IC50) came out at 9 nM in the test listed under Mus musculus and 670 nM in the test filed under Homo sapiens.
The matching figures for `CO[C@@]1(c2cc(F)cc(OCc3ccc4c(ccc(=O)n4C)c3)c2)CCO[C@@H](C)C1`: 60 nM and 1760 nM.
